Experimental data published in patent publication US20200179428A1, “CYCLIC PHOSPHATE SUBSTITUTED NUCLEOSIDE DERIVATIVES AND METHODS OF USE THEREOF FOR THE TREATMENT OF VIRAL DISEASES” (priority 2016, published 2020).
Where two headings read alike, the source gives them in different places.

Legend:
Type in all cases: cell-based
[1] = test system: replicon cells (1b-Con1); experiment: Replicon activity assay (replicon RNA level by real-time RT-PCR, Taqman); conditions: HCV replicon genotype 1b, read-out: EC50 (1b) Range
In short: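 HCV 1b-Con1 replicon cells treated 3 days with 10-point twofold serial dilutions in triplicate (0.5% DMSO, 10% FBS); replicon RNA quantified by Taqman real-time RT-PCR normalised to GAPDH, EC50 derived. Cytotoxicity by MTS read-out at day 3 on identically treated cells.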

[2] = test system: replicon cells; experiment: Cytotoxicity MTS assay (CellTiter 96 Aqueous One Solution) in replicon cells; conditions: EDU; read-out: CC50 (EDU) Range
[3] = as above; conditions: EDU, read-out: CC50 (EDU) Range; for CC50 at 3 days: HCV replicon cells (1b-Con1)

SMILES | EC50 [1] [µM] | CC50 [2] [µM] | EC50 ([1]; Hepatitis C virus) [µM] | CC50 at 3 days [3] [µM] | CC50 [3] [µM]
C#C[C@]1(C)[C@@H]2OP(=O)(OCC(C)CC(=O)OC(C)C)OC[C@H]2O[C@H]1n1ccc(=O)[nH]c1=O (single isomer, unassigned) [Compound 6A1] | > 10 | > 50 | – | – | –
C#C[C@@]1(O)[C@@H]2OP(=O)(OCCC(C)C(=O)OC(C)C)OC[C@H]2O[C@H]1n1ccc(=O)[nH]c1=O (stereo partly shown) [Compound 7B] | ≤ 0.25 | > 50 | – | – | –
C#C[C@]1(C)[C@@H]2OP(=O)(OCC(C)CC(=O)OC(C)C)OC[C@H]2O[C@H]1n1ccc(=O)[nH]c1=O (single isomer, unassigned) [Compound 6A2] | > 10 | > 50 | – | – | –
CC(CCOP1(=O)OC[C@H]2O[C@@H](n3ccc(=O)[nH]c3=O)[C@](C)(N)[C@@H]2O1)C(=O)OC1CCCC1 (single isomer, unassigned) [Compound 14B2] | 1 to 10 | > 50 | – | – | –
CC(C)OC(=O)C(C)CCOP1(=O)OC[C@H]2O[C@@H](n3cnc4c(N)ncnc43)[C@](C)(Cl)[C@@H]2O1 (single isomer, unassigned) [Compound 35B2] | ≤ 0.25 | > 50 | – | – | –
CC(C)OC(=O)C(C)CCOP1(=O)OC[C@H]2O[C@@H](n3ccc(=O)[nH]c3=O)[C@](C)(N)[C@@H]2O1 (single isomer, unassigned) [Compound 10A2] | > 10 | > 50 | – | – | –
CC(CCOP1(=O)OC[C@H]2O[C@@H](n3ccc(=O)[nH]c3=O)[C@](C)(N)[C@@H]2O1)C(=O)OC1CCCC1 (single isomer, unassigned) [Compound 14B] | > 10 | > 50 | – | – | –
C#C[C@]1(C)[C@@H]2OP(=O)(OCC(C)CC(=O)OC(C)C)OC[C@H]2O[C@H]1n1ccc(=O)[nH]c1=O (single isomer, unassigned) [Compound 6B1] | 1 to 10 | > 50 | – | – | –
C#C[C@]1(C)[C@@H]2O[P@@](=O)(OCC(CC(=O)OC(C)C)N(C)C(=O)OC(C)(C)C)OC[C@H]2O[C@H]1n1ccc(=O)[nH]c1=O (stereo partly shown) [Compound 74A2] | > 10 | > 50 | – | – | –
CC(C)OC(=O)[C@@H](C)CCOP1(=O)OC[C@H]2O[C@@H](n3ccc(=O)[nH]c3=O)[C@](C)(Cl)[C@@H]2O1 (single isomer, unassigned) [Compound 39B2] | 0.25 to 1 | > 50 | – | – | –
C#C[C@@]1(O)[C@@H]2OP(=O)(OCCC(C)C(=O)OC3CCCC3)OC[C@H]2O[C@H]1n1ccc(=O)[nH]c1=O (single isomer, unassigned) [Compound 8B] | ≤ 0.25 | > 50 | – | – | –
CC(CCOP1(=O)OC[C@H]2O[C@@H](n3ccc(=O)[nH]c3=O)[C@](C)(N)[C@@H]2O1)C(=O)OC1CCCC1 (single isomer, unassigned) [Compound 14A2] | > 10 | > 50 | – | – | –
CC(C)OC(=O)[C@@H](C)CCOP1(=O)OC[C@H]2O[C@@H](n3cnc4c(N)ncnc43)[C@](C)(Cl)[C@@H]2O1 (single isomer, unassigned) [Compound 35B1] | ≤ 0.25 | > 50 | – | – | –
CC(C)OC(=O)C(C)CCOP1(=O)OC[C@H]2O[C@@H](n3ccc(=O)[nH]c3=O)[C@](C)(Cl)[C@@H]2O1 (stereo partly shown) [Compound 39B] | ≤ 0.25 | > 50 | – | – | –
CC(C)OC(=O)C(C)CCOP1(=O)OC[C@H]2O[C@@H](n3ccc(=O)[nH]c3=O)[C@](C)(N)[C@@H]2O1 (single isomer, unassigned) [Compound 10B2] | > 10 | > 50 | – | – | –
C#C[C@@]1(O)[C@@H]2OP(=O)(OCCC(C)C(=O)OC3CCCC3)OC[C@H]2O[C@H]1n1ccc(=O)[nH]c1=O (single isomer, unassigned) [Compound 8B1] | ≤ 0.25 | > 50 | – | – | –
CCOC(=O)C(C)CCOP1(=O)OC[C@H]2O[C@@H](n3ccc(=O)[nH]c3=O)[C@](C)(N)[C@@H]2O1 (single isomer, unassigned) [Compound 5B] | > 10 | > 50 | – | – | –
CO[C@H](CCOP1(=O)OC[C@H]2O[C@@H](n3ccc(=O)[nH]c3=O)[C@](C)(Cl)[C@@H]2O1)C(=O)OC(C)C (stereo partly shown) [Compound 37B] | ≤ 0.25 | > 50 | – | – | –
C#C[C@]1(C)[C@@H]2OP(=O)(OCC(C)CC(=O)OC(C)C)OC[C@H]2O[C@H]1n1ccc(=O)[nH]c1=O (single isomer, unassigned) [Compound 6B2] | 1 to 10 | > 50 | – | – | –
CC(C)OC(=O)C(C)CCOP1(=O)OC[C@H]2O[C@@H](n3ccc(=O)[nH]c3=O)[C@](C)(N)[C@@H]2O1 (single isomer, unassigned) [Compound 10B1] | > 10 | > 50 | – | – | –
CC(C)OC(=O)C(CCOP1(=O)OC[C@H]2O[C@@H](n3ccc(=O)[nH]c3=O)[C@](C)(Cl)[C@@H]2O1)C(=O)OC(C)C (stereo partly shown) [Compound 38B] | ≤ 0.25 | > 50 | – | – | –
C#C[C@]1(C)[C@@H]2OP(=O)(OCCC(C(=O)OC(C)C)C(=O)OC(C)C)OC[C@H]2O[C@H]1n1ccc(=O)[nH]c1=O (single isomer, unassigned) [Compound 36B] | 1 to 10 | > 50 | – | – | –

SMILES | EC50 [1] [µM] | CC50 [2] [µM] | EC50 ([1]; Hepatitis C virus) [µM] | CC50 at 3 days [3] [µM] | CC50 [3] [µM]
CC(C)OC(=O)C(C)CCOP1(=O)OC[C@H]2O[C@@H](n3cnc4c(N)ncnc43)[C@](C)(Cl)[C@@H]2O1 (single isomer, unassigned) [Compound 35B] | ≤ 0.25 | > 50 | – | – | –
C#C[C@]1(C)[C@@H]2O[P@@](=O)(OCCC(CO)C(=O)OC(C)C)OC[C@H]2O[C@H]1n1ccc(=O)[nH]c1=O (stereo partly shown) [Compound 44A] | – | – | > 10 | > 50 | –
CC(C)OC(=O)[C@@H](C)CCO[P@@]1(=O)OC[C@H]2O[C@@H](n3cnc4c(N)ncnc43)[C@](C)(C#N)[C@@H]2O1 [Compound 71A] | – | – | > 10 | > 50 | –
C#C[C@@]1(O)[C@@H]2O[P@@](=O)(OCCC(C(=O)OC(C)C)C(=O)OC(C)C)OC[C@H]2O[C@H]1n1ccc(=O)[nH]c1=O [Compound 59A] | – | – | 0.25 to 1 | > 50 | –
C#C[C@]1(C)[C@@H]2O[P@@](=O)(OC[C@@H](F)CC(=O)OC(C)C)OC[C@H]2O[C@H]1n1ccc(=O)[nH]c1=O [Compound 64A] | – | – | 0.25 to 1 | > 50 | –
C#C[C@@]1(O)[C@@H]2OP(=O)(OCC[C@@H](C)C(=O)OC(C)C)OC[C@H]2O[C@H]1n1ccc(=O)[nH]c1=O (single isomer, unassigned) [Compound 7B1] | 0.25 to 1 | > 50 | – | – | –
CCOC(=O)C(C)CCOP1(=O)OC[C@H]2O[C@@H](n3ccc(=O)[nH]c3=O)[C@](C)(N)[C@@H]2O1 (single isomer, unassigned) [Compound 5A] | 1 to 10 | – | – | > 50 | –
C[C@@]1(N)[C@@H]2OP(=O)(OCCC3(C(=O)OC4CCCC4)CCC3)OC[C@H]2O[C@H]1n1ccc(=O)[nH]c1=O (stereo partly shown) [Compound 29A] | – | – | > 10 | > 50 | –
C#C[C@]1(C)[C@@H]2OP(=O)(OCCC(C)C(=O)OC3CCCC3)OC[C@H]2O[C@H]1n1ccc(=O)[nH]c1=O (stereo partly shown) [Compound 2A] | – | – | 1 to 10 | > 50 | –
CC(C)OC(=O)COCCO[P@]1(=O)OC[C@H]2O[C@@H](n3ccc(=O)[nH]c3=O)[C@](C)(N)[C@@H]2O1 [Compound 69B] | – | – | > 10 | > 50 | –
C#C[C@]1(C)[C@@H]2OP(=O)(OCC(C)CC(=O)OC3CCCC3)OC[C@H]2O[C@H]1n1ccc(=O)[nH]c1=O (single isomer, unassigned) [Compound 3B] | ≤ 0.25 | > 50 | – | – | –
C#C[C@]1(C)[C@@H]2O[P@@](=O)(OC[C@@H](CC(=O)OC(C)C)OC)OC[C@H]2O[C@H]1n1ccc(=O)[nH]c1=O [Compound 62A] | – | – | > 10 | > 50 | –
CC(CCOP1(=O)OC[C@H]2O[C@@H](n3ccc(=O)[nH]c3=O)[C@](C)(N)[C@@H]2O1)C(=O)OC1CCCC1 (single isomer, unassigned) [Compound 14B1] | 1 to 10 | > 50 | – | – | –
C#C[C@]1(C)[C@@H]2OP(=O)(OCCC(C)C(=O)OC(C)C)OC[C@H]2O[C@H]1n1ccc(=O)[nH]c1=O (stereo partly shown) [Compound 1A] | – | – | 1 to 10 | – | > 50
CC(C)OC(=O)C1CC1CO[P@@]1(=O)OC[C@H]2O[C@@H](n3ccc(=O)[nH]c3=O)[C@](C)(N)[C@@H]2O1 (stereo partly shown) [Compound 47A] | – | – | > 10 | > 50 | –
C#C[C@@]1(O)[C@@H]2OP(=O)(OCCC(C)C(=O)OC3CCCC3)OC[C@H]2O[C@H]1n1ccc(=O)[nH]c1=O (single isomer, unassigned) [Compound 8A2] | ≤ 0.25 | > 50 | – | – | –
CC(C)OC(=O)C(C)CCOP1(=O)OC[C@H]2O[C@@H](n3ccc(=O)[nH]c3=O)[C@](C)(N)[C@@H]2O1 (single isomer, unassigned) [Compound 10B] | > 10 | > 50 | – | – | –
C#C[C@@]1(O)[C@@H]2OP(=O)(OCC[C@H](C)C(=O)OC3CCCC3)OC[C@H]2O[C@H]1n1ccc(=O)[nH]c1=O (single isomer, unassigned) [Compound 8B2] | 0.25 to 1 | > 50 | – | – | –
C#C[C@@]1(O)[C@@H]2OP(=O)(OCC[C@H](C)C(=O)OC(C)C)OC[C@H]2O[C@H]1n1ccc(=O)[nH]c1=O (single isomer, unassigned) [Compound 7B2] | 1 to 10 | > 50 | – | – | –
C#C[C@]1(C)[C@@H]2O[P@@](=O)(OCCC(CC)C(=O)OC(C)C)OC[C@H]2O[C@H]1n1ccc(=O)[nH]c1=O (stereo partly shown) [Compound 31A] | – | – | 0.25 to 1 | > 50 | –
CC(C)OC(=O)C1CC1CO[P@]1(=O)OC[C@H]2O[C@@H](n3ccc(=O)[nH]c3=O)[C@](C)(N)[C@@H]2O1 (stereo partly shown) [Compound 47B] | – | – | > 10 | > 50 | –
C#C[C@]1(C)[C@@H]2O[P@](=O)(OCCC(C(=O)OC(C)C)C(C)C)OC[C@H]2O[C@H]1n1ccc(=O)[nH]c1=O (stereo partly shown) [Compound 32B] | – | – | > 10 | > 50 | –
